Assay results from US20130143886A1, “METHODS FOR PRESERVING AND/OR INCREASING RENAL FUNCTION USING XANTHINE OXIDOREDUCTASE INHIBITORS” (priority 2006, published 2013).

What was measured:
[1] = tested on: normal Sprague-Dawley rats; test: Water intake in normal rats (earlier data of the laboratory); type: in vivo; details: previous data of this laboratory
remnant kidney (RK) rats [2] = test: Systolic blood pressure by tail cuff in conscious remnant kidney rats; type: in vivo, Male Wistar rats; details: all four groups, after four weeks; corroborated by mean arterial pressure under anesthesia
Protocol: Male Wistar rats (295-340 g) were used to produce rats with remnant kidney (RK) as follows. […] Rats were then assigned to one of four treatment groups: Group 1, RK control rats (n=7); Group 2, RK+febuxostat (Fx) rats (n=8); Group 3, RK+oxonic acid (OA) rats (n=6); and Group 4, RK+OA+Fx (n=10). Oxonic acid (OA) (Sigma-Aldrich, St Louis Mo., USA), administered at 750 mg/kg body weight daily by oral gavage, was given starting the day after the ⅚ nephrectomy. […] Body weight (beginning just before surgery) and food and water intakes were measured daily. Systolic blood pressure, measured in conscious rats by a tail cuff sphygmomanometer, and plasma uric acid (UA) levels were measured at just before surgery (namely, at baseline) and at the end of the four weeks. Proteinuria was measured at baseline and at the end of two and four weeks. […] Food and water intake were determined daily. Systolic blood pressure (SBP) was measured by a tail-cuff sphygmomanometer using an automated system (XBP-100; Kent Scientific Co, Torrington, Conn., USA) in conscious animals. […] Plasma uric acid was quantified using a commercial kit (Diagnostic Chemicals Ltd, Charlottetown, PEI, Canada). […]

remnant kidney (RK) rats [3] = test: Micropuncture procedure to assess glomerular hemodynamics; type: in vivo, Male Wistar rats; details: for GFR / Kf / PGC / QA / SNGFR / MAP: end of four weeks; for MAP: under anesthesia
Protocol: Male Wistar rats (295-340 g) were used to produce rats with remnant kidney (RK) as follows. […] Rats were then assigned to one of four treatment groups: Group 1, RK control rats (n=7); Group 2, RK+febuxostat (Fx) rats (n=8); […] Oxonic acid (OA) (Sigma-Aldrich, St Louis Mo., USA), administered at 750 mg/kg body weight daily by oral gavage, was given starting the day after the 5⁄6 nephrectomy. […] All groups were treated for four weeks. Body weight (beginning just before surgery) and food and water intakes were measured daily. Systolic blood pressure, measured in conscious rats by a tail cuff sphygmomanometer, and plasma uric acid (UA) levels were measured at just before surgery (namely, at baseline) and at the end of the four weeks. Proteinuria was measured at baseline and at the end of two and four weeks. A renal micropuncture procedure along with systemic blood pressure monitoring under pentobarbital anesthesia was performed at the end of four weeks followed by morphologic evaluation of the renal preglomerular microvasculature. Animals were anesthetized with pentobarbital sodium (30 mg/kg, intraperitoneal (ip)) and placed on a thermoregulated table to maintain body temperature at 37° C. Trachea, jugular veins, femoral arteries and the left ureter were catheterized with polyethylene tubing (PE-240, PE-50, and PE-10). The left kidney was exposed, placed in a Lucite holder, sealed with agar, and covered with Ringer's solution. Mean arterial pressure (MAP) was monitored with a pressure transducer (Model p23 db; Gould, San Juan, Puerto Rico) connected to the catheter in the femoral artery and recorded on a polygraph (Grass Instruments, Quincy, Mass., USA). Blood samples were taken periodically and replaced with blood from a donor rat. Rats were maintained under euvolemic conditions by infusion of 10 mL/kg of body weight of isotonic rat plasma during surgery, followed by an infusion of 25%, polyfructosan, at 2.2 ml/h (Inutest; Fresenius Kabi, Linz, Austria). After 60 minutes, five to seven samples of proximal tubular fluid were obtained to determine flow rate and polyfructosan concentrations. Intratubular pressure under free-flow (FF) and stop-flow (SFP) conditions and peritubular capillary pressure (Pc) were measured in other proximal tubules with a servo-null device (Servo Nulling Pressure System; Instrumentation for Physiology and Medicine, San Diego, Calif., USA). Glomerular colloid osmotic pressure was estimated from protein concentrations obtained from blood of the femoral artery (Ca) and surface efferent arterioles (Ce). Polyfructosan was measured in plasma and urine samples by the anthrone-based technique described by Davidson and […] in “Simplification of the anthrone method for the determination of inulin in clearance studies,” J Lab Clin Med. 62:351-356 (1963), the contents of which are herein incorporated by reference. In brief, plasma samples were deproteinated first with trichloroacetic acid. After centrifugation, the supernatant was used for polyfructosan measurement. Polyfructosan concentrations in plasma and urine samples were assessed by the addition of anthrone reagent followed by incubation at 45° C. for 50 minutes and reading in a spectrophotometer set at wavelength of 620 nm. […] Total GFR was calculated using the following formula: GFR=(U×V)/P, where U is the polyfructosan concentration in urine, V is urine flow rate, and P is the polyfructosan concentration in plasma. The volume of fluid collected from individual proximal tubules was estimated from the length of the fluid column in a constant-bore capillary tube of known internal diameter. The concentration of tubular polyfructosan was measured by the microfluorometric method described by Vurek and Pegram in “Fluorometric method for the determination of nanogram quantities of inulin,” Anal Biochem 16:409-419 (1966), the contents of which are herein incorporated by reference. […]

[4] = RK + OA + Fx group (OA-induced hyperuricemia)
[5] = RK rats (RK + Fx or RK + OA group)

Cc1nc(-c2ccc(OCC(C)C)c(C#N)c2)sc1C(=O)O [febuxostat, 2-[3-cyano-4-(2-methylpropoxy)phenyl]-4-methylthiazole-5-carboxylic acid]
Effect on water intake [1]: no effect on water intake | Systolic blood pressure (in words) (remnant kidney (RK) rats [2]): developed systemic hypertension to approximately the same degree | GFR (remnant kidney (RK) rats [3]; [4]): 0.44 ± 0.05 mL/min | Kf (remnant kidney (RK) rats [3]; [4]): 0.037 ± 0.004 nL/s · mmHg | PGC (remnant kidney (RK) rats [3]; [4]): 52.0 ± 1.2 mmHg | QA (remnant kidney (RK) rats [3]; [4]): 151 ± 19 nL/min | SNGFR (remnant kidney (RK) rats [3]; [4]): 42.2 ± 4.9 nL/min | MAP (remnant kidney (RK) rats [3]; [4]): 172 ± 8 mmHg | GFR (remnant kidney (RK) rats [3]; [5]): 0.51 ± 0.04 mL/min | Kf (remnant kidney (RK) rats [3]; [5]): 0.035 ± 0.005 nL/s · mmHg | PGC (remnant kidney (RK) rats [3]; [5]): 52.2 ± 1.9 mmHg | QA (remnant kidney (RK) rats [3]; [5]): 142 ± 11 nL/min | SNGFR (remnant kidney (RK) rats [3]; [5]): 36.7 ± 3.1 nL/min | MAP (remnant kidney (RK) rats [3]; [5]): 189 ± 8 mmHg | GFR (in words) (remnant kidney (RK) rats [3]; RK+Fx and RK+OA+Fx rats vs the two untreated groups): increase GFR compared to the two untreated groups | Single-nephron hyperfiltration (in words) (remnant kidney (RK) rats [3]; RK+Fx and RK+OA+Fx rats, normal glomerular pressure and plasma flow maintained): prevented single-nephron hyperfiltration | Afferent arteriolar resistances (in words) (remnant kidney (RK) rats [3]; RK+OA+Fx rats vs untreated cohorts): higher afferent arteriolar resistances compared to their respective untreated cohorts
